# Laboratory results from patent publication US7893069B2, “Substituted imidazo[2,1-b]thiazole compounds and uses thereof” (Gruenenthal GmbH, priority 2006, dated 2011).
# Experiments:
# mGluR5 receptor (human) = molecular target: T1, mGluR5 receptor (human) (Homo sapiens, UniProt P41594); experiment: Functional Ca2+ influx assay in CHO-hmGluR5 cells (DHPG-stimulated, FLIPR); type: cell-based; details: 10 μM DHPG, Ki=IC50/(1+AGConc./EC50)
# T1 construct: host or cells: CHO-hmGluR5 cells (purchased cell line; incubated overnight with doxycycline)
# Description: The data is analyzed by means of a 1-factorial ANOVA (comparison of treatment groups versus vehicle group). The significance level is set at p<0.05. All the groups have a size of N=10. The test is also described in Hogg, S. (1996) “A review of the validity and variability of the elevated plus-maze as an animal model of anxiety,” Pharmacol. Biochem. Behav. 54, 21-30, and in Rodgers, R. J., Cole, J. C. (1994) “The elevated plus-maze: pharmacology, methodology and ethology,” in Cooper, S. J., Hendrie, C. A. (eds.) Ethology and Psychopharmacology. Wiley & Sons; pp. 9-44. 5. Description of the Functional Ca^2+ Influx Assay […]
# After recording the fluorescence base line for 10 sec., 50 μl test substance solution (various test substance concentrations in HBSS buffer with 1% DMSO and 0.02% Tween 20, Sigma) is added and the fluorescence signal is measured for 6 min. 50 μl DHPG solution ((S)-3,5-dihydroxyphenylglycine, Tocris Biotrend Chemikalien GmbH, Cologne, Germany, final DHPG concentration: 10 μM) is subsequently added and the inflow of Ca^2+ is simultaneously measured for 60 sec. […] The data is analysed with Microsoft Excel and GraphPad Prism. The dose-effect curves are calculated with non-linear regression and IC50 values determined. Each data point is determined 3 times and IC50 values are averaged from a minimum of 2 independent measurements. […]
# mGluR5 receptor (pig) = molecular target: T2, mGluR5 receptor (pig) (Sus scrofa, UniProt I3LUI7); experiment: [3H]-MPEP binding assay, pig brain homogenate; details: displacement of 5 nM [3H]-MPEP, 450 μg protein from pig brain homogenate, 60 min, room temperature; read-out: IC50 [3H]-MPEP bond mGluR5 receptor (pig)
# T2 construct: 450 μg protein from brain homogenate is incubated with 5 nM; from tissue; host or cells: pig brain halves without medulla, cerebellum and pons; homogenate, differential centrifugation
# Description: Substituted imidazo[2,1-b]thiazole compounds corresponding to the foregoing formula I are likewise particularly preferred, which, after 60 minutes of incubation in 450 μg protein from pig brain homogenate at a temperature between 20° C. and 25° C. in a concentration of less than 2500 nM, preferably less than 1000 nM, particularly preferably less than 700 nM, very particularly preferably less than 100 nM, even more preferably less than 70 nM, bring about a 50-percent displacement of [^3H]-2-methyl-6-(3-methoxyphenyl)-ethynylpyridine which is present in a concentration of 5 nM. The determination of the displacement of [^3H]-2-methyl-6-(3-methoxyphenyl)-ethynyl-pyridine is performed as described hereinafter in the section Pharmacological Methods, I. Method for determining the inhibition of [^3H]-MPEP-bonding in the mGluR5 receptor bonding assay.
# 1. Method for Determining the Affinity to the mGluR5 Receptor
# Pig brain homogenate is produced by homogenization (Polytron PT 3000, Kinematica AG, 10,000 rpm for 90 seconds) of pig brain halves without medulla, cerebellum and pons in buffer pH 8.0 (30 mM Hepes, Sigma, order no. H3375+1 tablet complete to 100 ml, Roche Diagnostics, order no. 1836145) in ratio 1:20 (brain weight/volume) and differential centrifugation at 900×g and 40,000×g. In each case, 450 μg protein from brain homogenate is incubated with 5 nM ^3-[H]-MPEP (Tocris, order no. R1212) (MPEP=2-methyl-6-(3-methoxyphenyl)-ethynylpyridine) in 250 μl incubation batches in 96 well microtitration plates and the compounds to be tested (10 μM in the test) in buffer (as above) at room temperature for 60 min.
# Thereafter, the batches are filtered with the help of a Brandel Cell Harvester (Brandel, TYP Robotic 9600) on unifilter plates with glass fibre filter mats (Perkin Elmer, order no. 6005177) and subsequently washed with buffer (as above) 3 times with in each case 250 μl per sample. The filter plates are subsequently dried for 60 min at 55° C. 30 μL Ultima Gold™ scintillator is subsequently added per well (Packard BioScience, order no. 6013159) and the samples are measured after 3 hours on the β-counter (Mikrobeta, Perkin Elmer). The unspecific bond is determined by addition of 10 μM MPEP (Tocris, order no. 1212).
# rat = experiment: Formalin test in rats (phase 2, chronic pain component); type: in vivo; details: p.o., 10 mg/kg, administered 30 min before formalin
# Description: 2a. Formalin Test in Rats The formalin test (Dubuisson, D. and Dennis, S. G., 1977, Pain, 4, 161-174) represents a model for acute and chronic pain. A biphasic nociceptive reaction, which is recorded by observation of three clearly differentiable behavioural patterns, is induced by a single formalin injection into the dorsal side of a rear paw in freely mobile test animals. The reaction has two phases: Phase 1=Immediate reaction (duration up to 10 min; paw shaking, licking), Phase 2=Late reaction (after a rest phase; likewise, paw shaking, licking; duration up to 60 min). The 1st phase reflects a direct stimulation of the peripheral nocisensors with high spinal nociceptive input or glutamate release (acute pain phase); the 2nd phase reflects a spinal and peripheral hypersensitisation (chronic pain phase). In the investigations presented here, the chronic pain component (phase 2) was evaluated. Formalin with a volume of 50 μl and a concentration of 5% is administered subcutaneously into the dorsal side of the right rear paw of each animal. The substances to be tested are administered 30 min before the formalin injection orally (p.o), intravenously (i.v.) or intraperitoneally (i.p.). The specific changes in behavior such as lifting and shaking the paw, shifts in weight of the animal as well as biting and licking reactions are observed and registered in the period of observation from 21 to 27 min after formalin injection. The various forms of behavior are summarized in the so-called pain rate (PR), which, relative to the sub-intervals of 3 min, represents the calculation of an average nociception reaction. […] The group size is 10 animals (n=10). 2b. Formalin Test in Mice
# T2 sequence (I3LUI7 19-1212): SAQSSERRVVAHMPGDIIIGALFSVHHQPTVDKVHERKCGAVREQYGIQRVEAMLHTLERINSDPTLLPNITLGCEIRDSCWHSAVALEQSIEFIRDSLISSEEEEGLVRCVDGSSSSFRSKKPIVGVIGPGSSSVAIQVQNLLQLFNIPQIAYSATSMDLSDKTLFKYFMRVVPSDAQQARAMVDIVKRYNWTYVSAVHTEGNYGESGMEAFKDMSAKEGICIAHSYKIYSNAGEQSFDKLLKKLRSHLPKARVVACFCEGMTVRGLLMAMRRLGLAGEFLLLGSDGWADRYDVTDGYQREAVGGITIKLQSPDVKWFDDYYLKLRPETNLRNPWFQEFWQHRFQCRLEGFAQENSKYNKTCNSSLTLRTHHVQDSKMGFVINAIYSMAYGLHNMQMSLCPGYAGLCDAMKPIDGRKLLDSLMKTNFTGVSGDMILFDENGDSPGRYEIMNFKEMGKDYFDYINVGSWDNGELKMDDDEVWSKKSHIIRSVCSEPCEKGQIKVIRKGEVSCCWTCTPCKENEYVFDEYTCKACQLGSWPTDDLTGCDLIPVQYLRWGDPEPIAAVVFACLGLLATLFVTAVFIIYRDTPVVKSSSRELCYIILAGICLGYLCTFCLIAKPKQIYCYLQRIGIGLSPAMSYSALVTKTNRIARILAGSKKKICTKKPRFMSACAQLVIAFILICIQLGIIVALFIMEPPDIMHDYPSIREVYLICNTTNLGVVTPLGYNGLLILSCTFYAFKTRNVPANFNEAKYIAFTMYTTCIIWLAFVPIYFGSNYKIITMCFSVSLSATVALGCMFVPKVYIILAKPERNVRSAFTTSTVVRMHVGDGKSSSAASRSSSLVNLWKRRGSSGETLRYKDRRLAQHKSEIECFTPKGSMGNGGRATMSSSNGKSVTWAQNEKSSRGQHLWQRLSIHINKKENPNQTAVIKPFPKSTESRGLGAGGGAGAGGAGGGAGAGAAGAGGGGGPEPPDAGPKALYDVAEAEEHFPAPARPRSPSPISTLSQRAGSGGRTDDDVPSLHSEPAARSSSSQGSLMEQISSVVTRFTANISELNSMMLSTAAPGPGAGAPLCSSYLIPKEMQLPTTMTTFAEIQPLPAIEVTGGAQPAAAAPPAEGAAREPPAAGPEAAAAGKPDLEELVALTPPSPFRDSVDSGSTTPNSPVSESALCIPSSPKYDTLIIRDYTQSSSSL
# T1 sequence (P41594 21-1212): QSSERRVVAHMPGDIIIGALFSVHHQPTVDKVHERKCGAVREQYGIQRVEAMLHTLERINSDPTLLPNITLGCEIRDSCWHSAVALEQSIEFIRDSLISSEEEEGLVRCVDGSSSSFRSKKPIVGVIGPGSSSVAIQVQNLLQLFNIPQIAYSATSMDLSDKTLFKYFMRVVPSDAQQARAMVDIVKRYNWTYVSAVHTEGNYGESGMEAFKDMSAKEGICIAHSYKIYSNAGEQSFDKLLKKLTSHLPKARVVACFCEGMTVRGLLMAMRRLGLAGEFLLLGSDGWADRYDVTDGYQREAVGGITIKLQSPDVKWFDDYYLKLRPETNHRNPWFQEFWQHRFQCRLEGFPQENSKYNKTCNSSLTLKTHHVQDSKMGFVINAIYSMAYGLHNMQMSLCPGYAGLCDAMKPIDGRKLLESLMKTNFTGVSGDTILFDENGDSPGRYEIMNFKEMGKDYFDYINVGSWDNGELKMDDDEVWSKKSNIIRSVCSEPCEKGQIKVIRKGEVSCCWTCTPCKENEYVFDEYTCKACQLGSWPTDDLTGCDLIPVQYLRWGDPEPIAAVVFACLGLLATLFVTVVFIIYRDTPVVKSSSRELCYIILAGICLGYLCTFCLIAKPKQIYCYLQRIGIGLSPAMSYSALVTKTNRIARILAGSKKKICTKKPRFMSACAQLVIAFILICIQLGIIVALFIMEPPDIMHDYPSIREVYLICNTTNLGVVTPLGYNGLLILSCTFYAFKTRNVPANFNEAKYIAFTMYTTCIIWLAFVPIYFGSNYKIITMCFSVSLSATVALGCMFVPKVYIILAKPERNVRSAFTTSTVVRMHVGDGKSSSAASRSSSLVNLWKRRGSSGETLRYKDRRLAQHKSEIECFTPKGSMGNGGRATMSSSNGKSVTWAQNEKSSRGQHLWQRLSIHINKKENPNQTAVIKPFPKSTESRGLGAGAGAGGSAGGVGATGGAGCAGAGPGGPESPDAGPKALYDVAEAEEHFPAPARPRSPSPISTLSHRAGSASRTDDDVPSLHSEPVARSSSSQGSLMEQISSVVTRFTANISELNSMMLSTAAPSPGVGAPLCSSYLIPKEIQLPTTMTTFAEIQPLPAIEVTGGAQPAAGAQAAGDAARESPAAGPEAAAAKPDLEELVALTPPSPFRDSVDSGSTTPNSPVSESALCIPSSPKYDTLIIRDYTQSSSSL
Compound,Ki (mGluR5 receptor (human)) [nM],IC50 (mGluR5 receptor (pig)) [nM],Formalin test (rat) p.o. Reduction in the nociceptive behavior over controls at 10 mg/kg (rat) [%]
"Cc1cn2c(NC(C)(C)C)c(-c3ccc(C#Cc4ccccn4)s3)nc2s1 [Example 4, N-tert-butyl-2-methyl-6-(5-(pyridine-2-ylethynyl)thiophene-2-yl)imidazo[2,1-b]thiazole-5-amine]",0.31,5.5,62
"CC(C)(C)Nc1c(-c2ccc(C#Cc3ccncc3)s2)nc2sccn12 [Example 7, N-tert-butyl-6-(5-(pyridine-4-ylethinyl)thiophene-2-yl)imidazo[2,1-b]thiazole-5-amine]",0.26,3,
